Laboratory results reported in PubChem BioAssay AID1963979 (Molecular Pharmacology Branch, DTP, NCI, 2024).

Test system: 361931-004-R-J1-PDC multicell spheroid viability
Test: Anticancer human tumor 361931-004-R-J1-PDC patient-derived colon adenocarcinoma cell line growth inhibition [PI3K]
Conditions: for IC50: curve of first compound; for viability, T/C: stronger effect = lower value
Method in brief: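 Agents were dosed from a top concentration near clinical Cmax (otherwise 10 microM) in half-log decrements, alone or combined with PI3K inhibitors. The spheroids contain tumor cells plus endothelial (HUVEC) and MSC stroma; viability is measured.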

[1] = second compound 0.0316 µM, first compound 0.0316 µM
[2] = second compound 0.0316 µM, first compound 0.1 µM
[3] = second compound 0.1 µM, first compound 0.0316 µM
[4] = second compound 0.1 µM, first compound 0.1 µM
[5] = second compound 0.316 µM, first compound 0.0316 µM
[6] = second compound 0.316 µM, first compound 0.1 µM
[7] = second compound 1 µM, first compound 0.0316 µM
[8] = second compound 1 µM, first compound 0.1 µM
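Further: spheroids exposed to agents for seven days before readout.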

C#Cc1c(F)ccc2cc(O)cc(-c3ncc4c(N5CC6CCC(C5)N6)nc(OCC56CCCN5CC(F)C6)nc4c3F)c12 (centres undefined) + Cc1nc(NC(=O)N2CCCC2C(N)=O)sc1-c1ccnc(C(C)(C)C(F)(F)F)c1
IC50 (second compound 0.0316 µM): > 10000 nM | IC50 (second compound 0.1 µM): > 10000 nM | IC50 (second compound 0.316 µM): > 10000 nM | IC50 (second compound 1 µM): > 10000 nM | IC50 (second compound 3.16 µM): 3520 nM | IC50 (second compound 10 µM): 219 nM | viability, T/C [1]: 104% | viability, T/C [2]: 90.5% | viability, T/C (second compound 0.0316 µM, first compound 0.316 µM): 91.6% | viability, T/C (second compound 0.0316 µM, first compound 1 µM): 83% | viability, T/C (second compound 0.0316 µM, first compound 3.16 µM): 79.7% | viability, T/C (second compound 0.0316 µM, first compound 10 µM): 69.3% | viability, T/C [3]: 109% | viability, T/C [4]: 98.3% | viability, T/C (second compound 0.1 µM, first compound 0.316 µM): 93.7% | viability, T/C (second compound 0.1 µM, first compound 1 µM): 88.9% | viability, T/C (second compound 0.1 µM, first compound 3.16 µM): 88.2% | viability, T/C (second compound 0.1 µM, first compound 10 µM): 61.8% | viability, T/C [5]: 91.6% | viability, T/C [6]: 86.5% | viability, T/C (second compound 0.316 µM, first compound 0.316 µM): 78.6% | viability, T/C (second compound 0.316 µM, first compound 1 µM): 69.5% | viability, T/C (second compound 0.316 µM, first compound 3.16 µM): 73.5% | viability, T/C (second compound 0.316 µM, first compound 10 µM): 58% | viability, T/C [7]: 89.2% | viability, T/C [8]: 86.2% | viability, T/C (second compound 1 µM, first compound 0.316 µM): 70.3% | viability, T/C (second compound 1 µM, first compound 1 µM): 62.2% | viability, T/C (second compound 1 µM, first compound 3.16 µM): 68.2% | viability, T/C (second compound 1 µM, first compound 10 µM): 58.6% | viability, T/C (second compound 3.16 µM, first compound 0.0316 µM): 85.4% | viability, T/C (second compound 3.16 µM, first compound 0.1 µM): 77.9% | viability, T/C (second compound 3.16 µM, first compound 0.316 µM): 65.5% | viability, T/C (second compound 3.16 µM, first compound 1 µM): 53.9% | viability, T/C (second compound 3.16 µM, first compound 3.16 µM): 56.5% | viability, T/C (second compound 3.16 µM, first compound 10 µM): 42% | viability, T/C (second compound 10 µM, first compound 0.0316 µM): 62.2% | viability, T/C (second compound 10 µM, first compound 0.1 µM): 48% | viability, T/C (second compound 10 µM, first compound 0.316 µM): 49% | viability, T/C (second compound 10 µM, first compound 1 µM): 40.2% | viability, T/C (second compound 10 µM, first compound 3.16 µM): 39.2% | viability, T/C (second compound 10 µM, first compound 10 µM): 22.1%

CC(=O)c1c(C)c2cnc(Nc3ccc(N4CCNCC4)cn3)nc2n(C2CCCC2)c1=O + COc1c(OCCCN2CCOCC2)ccc2c3n(c(=NC(=O)c4cnc(N)nc4)nc12)CCN3
IC50 (second compound 0.00316 µM): > 100 nM | IC50 (second compound 0.01 µM): > 100 nM | IC50 (second compound 0.0316 µM): > 100 nM | IC50 (second compound 0.1 µM): > 100 nM | IC50 (second compound 0.316 µM): < 0.316 nM | IC50 (second compound 1 µM): < 0.316 nM | viability, T/C (second compound 0.00316 µM, first compound 0.000316 µM): 99.6% | viability, T/C (second compound 0.00316 µM, first compound 0.001 µM): 98.4% | viability, T/C (second compound 0.00316 µM, first compound 0.00316 µM): 99.8% | viability, T/C (second compound 0.00316 µM, first compound 0.01 µM): 97% | viability, T/C (second compound 0.00316 µM, first compound 0.0316 µM): 101% | viability, T/C (second compound 0.00316 µM, first compound 0.1 µM): 89.2% | viability, T/C (second compound 0.01 µM, first compound 0.000316 µM): 101% | viability, T/C (second compound 0.01 µM, first compound 0.001 µM): 98.8% | viability, T/C (second compound 0.01 µM, first compound 0.00316 µM): 103% | viability, T/C (second compound 0.01 µM, first compound 0.01 µM): 91.5% | viability, T/C (second compound 0.01 µM, first compound 0.0316 µM): 95.4% | viability, T/C (second compound 0.01 µM, first compound 0.1 µM): 83.4% | viability, T/C (second compound 0.0316 µM, first compound 0.000316 µM): 93.3% | viability, T/C (second compound 0.0316 µM, first compound 0.001 µM): 89.3% | viability, T/C (second compound 0.0316 µM, first compound 0.00316 µM): 93.3% | viability, T/C (second compound 0.0316 µM, first compound 0.01 µM): 87.4% | viability, T/C [1]: 83.8% | viability, T/C [2]: 62.9% | viability, T/C (second compound 0.1 µM, first compound 0.000316 µM): 84.1% | viability, T/C (second compound 0.1 µM, first compound 0.001 µM): 69.7% | viability, T/C (second compound 0.1 µM, first compound 0.00316 µM): 73.7% | viability, T/C (second compound 0.1 µM, first compound 0.01 µM): 72.8% | viability, T/C [3]: 67.9% | viability, T/C [4]: 53.1% | viability, T/C (second compound 0.316 µM, first compound 0.000316 µM): 50.7% | viability, T/C (second compound 0.316 µM, first compound 0.001 µM): 45.7% | viability, T/C (second compound 0.316 µM, first compound 0.00316 µM): 42.3% | viability, T/C (second compound 0.316 µM, first compound 0.01 µM): 41.8% | viability, T/C [5]: 49.6% | viability, T/C [6]: 38.1% | viability, T/C (second compound 1 µM, first compound 0.000316 µM): 23.1% | viability, T/C (second compound 1 µM, first compound 0.001 µM): 17.9% | viability, T/C (second compound 1 µM, first compound 0.00316 µM): 16.4% | viability, T/C (second compound 1 µM, first compound 0.01 µM): 19.7% | viability, T/C [7]: 21% | viability, T/C [8]: 15.2%
